Measured values as given in PubChem BioAssay AID192 (DTP/NCI, 2004).
Where “and” joins values, the source holds several entries; their conditions need not be identical. Equal values may be shown once. Toxic doses and inconclusive results are not listed. How the source made its calls: active means survival T/C of 150% or more; inactive means T/C below 125% in these data. Square brackets hold non-standard residues; d marks the D form. Peptide text beside a SMILES is read from it. * marks the point of attachment. ξ: configuration not given here. Boc = CC(C)(C)OC(=O)*; ξP = O=C(O)C1CCCN1

Tested on: BDF1 mice, B16 melanoma ip, median survival T/C
Assay: NCI In Vivo Anticancer Drug Screen. Data for tumor model B16 Melanoma (intraperitoneal) in B6D2F1 (BDF1) mice
Conditions: endpoint: median survival time, higher = longer survival
Outline: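 Antitumor activity is assessed in mice bearing a transplanted tumor, with survival or tumor size compared against vehicle-dosed controls and expressed as T/C.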

[1] = dose: 100.0 mg/kg/injection, schedule: Q01DX009 (ip), vehicle: saline
[2] = dose: 200.0 mg/kg/injection, schedule: Q01DX009 (ip), vehicle: saline
[3] = dose: 50.0 mg/kg/injection, schedule: Q01DX009 (ip), vehicle: saline with Tween-80
[4] = dose: 100.0 mg/kg/injection, schedule: Q01DX009 (ip), vehicle: saline with Tween-80
[5] = dose: 25.0 mg/kg/injection, schedule: Q01DX009 (ip), vehicle: saline with Tween-80
[6] = dose: 200.0 mg/kg/injection, schedule: Q01DX009 (ip), vehicle: saline with Tween-80
[7] = dose: 400.0 mg/kg/injection, schedule: Q01DX009 (ip), vehicle: saline with Tween-80

Measured: T/C

Cc1cc(NS(=O)(=O)c2ccc(N=Nc3cc(N=Nc4ccc(S(=O)(=O)Nc5cc(C)nc(C)n5)cc4)c4c(NC(=O)C(Cl)Cl)cccc4c3OC(=O)C(Cl)Cl)cc2)nc(C)n1 (tested in a mixture with another compound)
inactive: dose: 12.5 mg/kg/injection, schedule: Q01DX009 (ip), vehicle: suspension in saline 98 % of control | dose: 25.0 mg/kg/injection, schedule: Q01DX009 (ip), vehicle: suspension in saline 95 % of control | dose: 50.0 mg/kg/injection, schedule: Q01DX009 (ip), vehicle: suspension in saline 97 % of control | dose: 100.0 mg/kg/injection, schedule: Q01DX009 (ip), vehicle: suspension in saline 95 % of control | dose: 200.0 mg/kg/injection, schedule: Q01DX009 (ip), vehicle: suspension in saline 93 % of control | dose: 400.0 mg/kg/injection, schedule: Q01DX009 (ip), vehicle: suspension in saline 87 % of control

CN1C2C=C(c3ccccc3)C(Br)C1CC2 (stereo unspecified)
inactive: dose: 20.0 mg/kg/injection, schedule: Q01DX009 (ip), vehicle: saline with Tween-80 98 % of control | dose: 20.0 mg/kg/injection, schedule: Q04DX003 (ip), vehicle: saline with Tween-80 100 % of control | dose: 40.0 mg/kg/injection, schedule: Q01DX009 (ip), vehicle: saline with Tween-80 91 % of control | dose: 40.0 mg/kg/injection, schedule: Q04DX003 (ip), vehicle: saline with Tween-80 104 % of control | dose: 80.0 mg/kg/injection, schedule: Q04DX003 (ip), vehicle: saline with Tween-80 88 % of control

CCN(CC)CCCC(C)NS(=O)(=O)c1cccc2c(N(C)C)cccc12 (stereo unspecified)
inactive: dose: 6.25 mg/kg/injection, schedule: Q01DX009 (ip), vehicle: water 104 % of control | dose: 12.5 mg/kg/injection, schedule: Q01DX009 (ip), vehicle: water 104 % of control | dose: 25.0 mg/kg/injection, schedule: Q01DX009 (ip), vehicle: water 97 % of control | dose: 50.0 mg/kg/injection, schedule: Q01DX009 (ip), vehicle: water 98 % of control | dose: 100.0 mg/kg/injection, schedule: Q01DX009 (ip), vehicle: water 92 % of control

FC(F)(F)c1ccc2nc(CI)c(CI)nc2c1
inactive: dose: 6.25 mg/kg/injection, schedule: Q01DX009 (ip), vehicle: Klucel (hydroxypropylcellulose) (HPC) 110 % of control | dose: 12.5 mg/kg/injection, schedule: Q01DX009 (ip), vehicle: Klucel (hydroxypropylcellulose) (HPC) 93 % of control | dose: 25.0 mg/kg/injection, schedule: Q01DX009 (ip), vehicle: Klucel (hydroxypropylcellulose) (HPC) 96 % of control | dose: 50.0 mg/kg/injection, schedule: Q01DX009 (ip), vehicle: Klucel (hydroxypropylcellulose) (HPC) 93 % of control

COC(=O)C1CCCN1C(=O)CNC(=O)OC(C)(C)C (stereo not drawn) (Boc-Gly-[ξP]-OMe)
inactive: dose: 50.0 mg/kg/injection, schedule: Q01DX009 (ip), vehicle: saline 94 % of control | [1] 103 % of control | [2] 91 % of control | dose: 400.0 mg/kg/injection, schedule: Q01DX009 (ip), vehicle: saline 88 % of control

CCC1NC(=O)C(NC(=O)c2ncccc2O)C(C)OC(=O)C(c2ccccc2)NC(=O)C2CC(=O)CCN2C(=O)C(Cc2ccccc2)N(C)C(=O)C2CCCN2C1=O (stereo unspecified) (tested in a mixture with another compound)
inactive: dose: 18.75 mg/kg/injection, schedule: Q01DX009 (ip), vehicle: Klucel (hydroxypropylcellulose) (HPC) 104 % of control | dose: 37.5 mg/kg/injection, schedule: Q01DX009 (ip), vehicle: Klucel (hydroxypropylcellulose) (HPC) 108 % of control | dose: 75.0 mg/kg/injection, schedule: Q01DX009 (ip), vehicle: Klucel (hydroxypropylcellulose) (HPC) 108 % of control

O=[N+]([O-])c1cc(Br)cc2c1nc(Cl)c1ccccc12
inactive: [3] 94 % of control | [4] 88 % of control

CCCCCc1ccc(C(=O)O)cc1
inactive: [5] 105 % of control | [3] 102 % of control | [4] 111 % of control

CN(C)C1=C(N2CC2)C(=O)C(N(C)C)=C(N2CC2)C1=O
inactive: dose: 0.12 mg/kg/injection, schedule: Q01DX009 (ip), vehicle: saline 106 % of control | dose: 0.25 mg/kg/injection, schedule: Q01DX009 (ip), vehicle: saline 112 % of control | dose: 0.5 mg/kg/injection, schedule: Q01DX009 (ip), vehicle: saline 93 % of control | dose: 1.0 mg/kg/injection, schedule: Q01DX009 (ip), vehicle: saline 112 % of control

COC(=O)c1c(C)cc(OC(=O)c2c(C)c(Cl)c(O)c(Cl)c2O)cc1O
inactive: dose: 5.0 mg/kg/injection, schedule: Q01DX009 (ip), vehicle: Klucel (hydroxypropylcellulose) (HPC) 97 % of control | dose: 10.0 mg/kg/injection, schedule: Q01DX009 (ip), vehicle: Klucel (hydroxypropylcellulose) (HPC) 94 % of control | dose: 20.0 mg/kg/injection, schedule: Q01DX009 (ip), vehicle: Klucel (hydroxypropylcellulose) (HPC) 100 % of control

COc1cccc2c1C(=O)c1c(O)c3c(c(O)c1C2=O)C[C@@](O)(/C(C)=N/NC(=O)c1cccc([N+](=O)[O-])c1)C[C@@H]3OC1CC(N)C(O)C(C)O1 (stereo partly specified)
active: dose: 2.0 mg/kg/injection, schedule: Q01DX001 (ip), vehicle: water 153 % of control | dose: 4.0 mg/kg/injection, schedule: Q01DX001 (ip), vehicle: water 158 % of control and 164 % of control | dose: 8.0 mg/kg/injection, schedule: Q01DX001 (ip), vehicle: water 168 % of control and 178 % of control | dose: 16.0 mg/kg/injection, schedule: Q01DX001 (ip), vehicle: water 164 % of control and 184 % of control
inactive: dose: 32.0 mg/kg/injection, schedule: Q01DX001 (ip), vehicle: water 95 % of control

O=C(/C=C/C(=O)Oc1c(Cl)c(Cl)c(Cl)c(Cl)c1Cl)Oc1c(Cl)c(Cl)c(Cl)c(Cl)c1Cl
inactive: dose: 100.0 mg/kg/injection, schedule: Q01DX009 (ip), vehicle: Klucel (hydroxypropylcellulose) (HPC) 86 % of control

CCOC(=O)Nc1ccc(OC)cc1
inactive: dose: 100.0 mg/kg/injection, schedule: Q04DX003 (ip), vehicle: Klucel (hydroxypropylcellulose) (HPC) 95 % of control | dose: 200.0 mg/kg/injection, schedule: Q04DX003 (ip), vehicle: Klucel (hydroxypropylcellulose) (HPC) 100 % of control | dose: 400.0 mg/kg/injection, schedule: Q04DX003 (ip), vehicle: Klucel (hydroxypropylcellulose) (HPC) 97 % of control

COc1cccc2c1C(=N)c1c(O)c3c(c(O)c1C2=O)C[C@@](O)(C(=O)CO)C[C@@H]3OC1CC(N)C(O)C(C)O1 (stereo partly specified)
active: dose: 25.0 mg/kg/injection, schedule: Q01DX001 (ip), vehicle: water 230 % of control | dose: 50.0 mg/kg/injection, schedule: Q01DX001 (ip), vehicle: water 292 % of control | dose: 100.0 mg/kg/injection, schedule: Q01DX001 (ip), vehicle: water 307 % of control

O=C(NC(=O)C(Cl)Cl)OC1c2cc(Cl)ccc2-c2c(Cl)cc(Cl)cc21 (stereo unspecified)
inactive: dose: 3.0 mg/kg/injection, schedule: Q01DX009 (ip), vehicle: saline with Tween-80 93 % of control | dose: 6.0 mg/kg/injection, schedule: Q01DX009 (ip), vehicle: saline with Tween-80 97 % of control | dose: 12.0 mg/kg/injection, schedule: Q01DX009 (ip), vehicle: saline with Tween-80 86 % of control

OCCOCC(F)(F)F
inactive: dose: 6.25 mg/kg/injection, schedule: Q01DX009 (ip), vehicle: saline with Tween-80 94 % of control and 112 % of control | dose: 12.5 mg/kg/injection, schedule: Q01DX009 (ip), vehicle: saline with Tween-80 99 % of control and 104 % of control | [5] 97 % of control and 103 % of control | [3] 92 % of control and 105 % of control | dose: 75.0 mg/kg/injection, schedule: Q01DX009 (ip), vehicle: saline with Tween-80 93 % of control | [4] 102 % of control and 103 % of control | dose: 150.0 mg/kg/injection, schedule: Q01DX009 (ip), vehicle: saline with Tween-80 88 % of control | [6] 94 % of control and 105 % of control

O=C(NC(Cc1ccc(O)cc1)C(=O)O)c1ccccc1 (stereo unspecified)
inactive: [3] 105 % of control | [4] 100 % of control | [6] 89 % of control | [7] 88 % of control

O=C([O-])C[n+]1ccccc1
inactive: [1] 108 % of control | [2] 103 % of control

Cc1ccc(Cl)cc1NS(=O)(=O)c1ccccc1
inactive: [4] 90 % of control | [6] 95 % of control | [7] 90 % of control
